The target of assay [1] is T1, Metabotropic glutamate receptor 5 (Rattus norvegicus, UniProt P31424). Description: Displacement of [3H]MPEP from rat brain recombinant mGluR5 expressed in HEK293T cells by scintillation counting. The format is cell-based, HEK-293T. (In a radioligand displacement assay an active substance lowers the binding of a labelled ligand.)
Assay [2] has as its target T1, Metabotropic glutamate receptor 5. Nature of the assay: Antagonist activity at rat mGluR5 expressed in HEK293A cells assessed as glutamate-induced calcium flux preincubated for 140 sec before glutamate challenge by calcium fluorescence assay. In kind it is functional, cell-based, HEK293-A. Background: Calcium assays in cells follow changes in intracellular calcium, usually with a dye or a luminescent sensor.

Assay [3] addresses T2, Metabotropic glutamate receptor 5 (Homo sapiens, UniProt P41594). Nature of the assay: Antagonist activity at cloned mGluR5 expressed in CHO cells co-transfected with chimeric G protein Gqi9 assessed as inhibition of glutamate-induced intracellular inositol phosphate accumulation at 10 uM by phosphoinositide hydrolysis assay. In kind it is functional, cell-based.
Assay [4] deals with Metabotropic glutamate receptor 1 (Homo sapiens) (UniProt Q13255). Nature of the assay: Antagonist activity at cloned mGluR1 expressed in CHO cells co-transfected with chimeric G protein Gqi9 assessed as inhibition of glutamate-induced intracellular inositol phosphate accumulation at 10 uM by phosphoinositide hydrolysis assay. In kind it is functional, cell-based.
The target in assay [5] is Metabotropic glutamate receptor 6 (Homo sapiens) (UniProt O15303). Nature of the assay: Antagonist activity at cloned mGluR6 expressed in CHO cells co-transfected with chimeric G protein Gqi9 assessed as inhibition of glutamate-induced intracellular inositol phosphate accumulation at 10 uM by phosphoinositide hydrolysis assay. In kind it is functional, cell-based.
In assay [6] the target is T2, Metabotropic glutamate receptor 5. Nature of the assay: Displacement of [3H]MPEP from cloned mGluR5 expressed in HEK293T cells by scintillation counting. The format is cell-based, HEK-293T.
Target sequence in this assay (P41594 whole entry): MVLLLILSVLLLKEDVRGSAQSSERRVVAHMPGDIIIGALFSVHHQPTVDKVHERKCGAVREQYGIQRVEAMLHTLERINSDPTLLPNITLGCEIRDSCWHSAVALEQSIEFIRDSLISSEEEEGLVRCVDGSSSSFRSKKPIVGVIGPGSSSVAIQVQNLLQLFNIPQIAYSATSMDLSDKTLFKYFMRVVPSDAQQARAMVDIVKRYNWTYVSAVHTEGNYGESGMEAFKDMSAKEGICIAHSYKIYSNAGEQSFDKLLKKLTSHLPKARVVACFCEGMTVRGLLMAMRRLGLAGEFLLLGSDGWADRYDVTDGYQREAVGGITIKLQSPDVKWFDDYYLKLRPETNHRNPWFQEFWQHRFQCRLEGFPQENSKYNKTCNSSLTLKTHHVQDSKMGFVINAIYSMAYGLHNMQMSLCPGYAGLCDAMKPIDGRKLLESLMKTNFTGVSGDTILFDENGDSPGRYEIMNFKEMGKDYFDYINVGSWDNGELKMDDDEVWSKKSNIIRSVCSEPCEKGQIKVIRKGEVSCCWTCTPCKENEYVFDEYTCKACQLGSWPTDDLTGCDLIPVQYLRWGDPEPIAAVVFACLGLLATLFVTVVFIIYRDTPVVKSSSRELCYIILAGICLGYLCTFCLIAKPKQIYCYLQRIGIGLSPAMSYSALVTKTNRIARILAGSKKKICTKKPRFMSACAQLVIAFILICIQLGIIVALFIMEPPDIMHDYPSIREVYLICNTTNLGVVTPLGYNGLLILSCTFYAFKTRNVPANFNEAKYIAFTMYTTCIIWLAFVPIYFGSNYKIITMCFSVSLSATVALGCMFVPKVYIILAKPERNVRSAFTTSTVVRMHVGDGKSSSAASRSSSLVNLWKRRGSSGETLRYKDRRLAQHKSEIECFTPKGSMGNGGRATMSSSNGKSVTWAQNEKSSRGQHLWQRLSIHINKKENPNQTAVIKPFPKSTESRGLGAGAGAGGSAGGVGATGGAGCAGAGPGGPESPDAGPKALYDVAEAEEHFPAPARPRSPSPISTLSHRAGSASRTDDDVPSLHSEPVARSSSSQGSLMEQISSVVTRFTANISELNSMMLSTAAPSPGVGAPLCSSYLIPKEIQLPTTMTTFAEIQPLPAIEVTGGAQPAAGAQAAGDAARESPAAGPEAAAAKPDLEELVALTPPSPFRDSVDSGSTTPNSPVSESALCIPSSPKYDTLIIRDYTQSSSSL
Assay [7] addresses T3, Sodium-dependent dopamine transporter (Homo sapiens, UniProt Q01959). Nature of the assay: Displacement of [125I]RTI55 from human DAT expressed in HEK293 cells. In kind it is cell-based.
The target in assay [8] is T4, Sodium-dependent serotonin transporter (Homo sapiens, UniProt P31645). Description: Displacement of [125I]RTI55 from human SERT expressed in HEK293 cells. The format is cell-based.
Assay [9] concerns the target T5, Sodium-dependent noradrenaline transporter (Homo sapiens, UniProt P23975). Nature of the assay: Displacement of [125I]RTI55 from human NET expressed in HEK293 cells. The format is cell-based.
Assay [10] addresses T3, Sodium-dependent dopamine transporter. Nature of the assay: Inhibition of dopamine uptake at human DAT expressed in HEK293 cells. In kind it is cell-based.
Assay [11] concerns the target T4, Sodium-dependent serotonin transporter. Description: Inhibition of serotonin uptake at human SERT expressed in HEK293 cells. The format is cell-based.
Assay [12] deals with T5, Sodium-dependent noradrenaline transporter. Description: Inhibition of norepinephrine uptake at human NET expressed in HEK293 cells. The format is cell-based.

Our source for the Ki, IC50 and inhibition values is ChEMBL document CHEMBL1136938, “Structure-activity relationships comparing N-(6-methylpyridin-yl)-substituted aryl amides to 2-methyl-6-(substituted-arylethynyl)pyridines or 2-methyl-4-(substituted-arylethynyl)thiazoles as novel metabotropic glutamate receptor subtype 5 antagonists” (J Med Chem, 2009).

Molecules are shown by their SMILES.

Metabotropic glutamate receptor 1 (Homo sapiens), sequence (Q13255 19-1194 limits assumed): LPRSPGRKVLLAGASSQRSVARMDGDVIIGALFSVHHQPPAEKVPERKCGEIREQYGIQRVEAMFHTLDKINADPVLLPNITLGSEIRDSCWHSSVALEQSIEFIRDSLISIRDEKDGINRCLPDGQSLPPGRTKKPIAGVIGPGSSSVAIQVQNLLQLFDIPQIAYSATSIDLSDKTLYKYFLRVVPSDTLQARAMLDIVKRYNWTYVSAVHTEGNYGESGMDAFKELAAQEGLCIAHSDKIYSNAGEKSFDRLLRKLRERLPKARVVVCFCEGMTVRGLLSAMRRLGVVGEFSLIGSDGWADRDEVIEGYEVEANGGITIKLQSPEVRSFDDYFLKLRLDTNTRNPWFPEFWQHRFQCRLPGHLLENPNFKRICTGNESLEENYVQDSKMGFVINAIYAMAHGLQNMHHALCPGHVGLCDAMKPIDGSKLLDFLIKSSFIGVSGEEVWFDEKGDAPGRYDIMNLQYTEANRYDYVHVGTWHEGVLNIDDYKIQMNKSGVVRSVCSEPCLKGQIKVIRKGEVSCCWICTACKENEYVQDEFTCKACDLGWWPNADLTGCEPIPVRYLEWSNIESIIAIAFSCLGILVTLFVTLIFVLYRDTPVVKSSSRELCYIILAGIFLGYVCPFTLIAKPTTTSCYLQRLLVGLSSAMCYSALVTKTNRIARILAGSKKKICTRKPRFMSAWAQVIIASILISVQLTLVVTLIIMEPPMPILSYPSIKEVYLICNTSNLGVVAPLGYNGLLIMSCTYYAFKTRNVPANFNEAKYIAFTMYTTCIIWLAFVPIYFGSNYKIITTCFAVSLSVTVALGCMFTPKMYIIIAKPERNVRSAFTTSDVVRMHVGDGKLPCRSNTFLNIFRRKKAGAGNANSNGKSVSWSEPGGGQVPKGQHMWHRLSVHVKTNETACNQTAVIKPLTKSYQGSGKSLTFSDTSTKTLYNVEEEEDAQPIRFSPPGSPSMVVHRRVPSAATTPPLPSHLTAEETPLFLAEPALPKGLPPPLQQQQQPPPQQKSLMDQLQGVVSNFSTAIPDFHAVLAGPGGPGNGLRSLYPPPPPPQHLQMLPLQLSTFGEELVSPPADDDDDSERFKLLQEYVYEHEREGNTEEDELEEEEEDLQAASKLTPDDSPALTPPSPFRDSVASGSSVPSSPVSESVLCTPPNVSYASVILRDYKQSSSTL
T3 sequence (Q01959 whole entry): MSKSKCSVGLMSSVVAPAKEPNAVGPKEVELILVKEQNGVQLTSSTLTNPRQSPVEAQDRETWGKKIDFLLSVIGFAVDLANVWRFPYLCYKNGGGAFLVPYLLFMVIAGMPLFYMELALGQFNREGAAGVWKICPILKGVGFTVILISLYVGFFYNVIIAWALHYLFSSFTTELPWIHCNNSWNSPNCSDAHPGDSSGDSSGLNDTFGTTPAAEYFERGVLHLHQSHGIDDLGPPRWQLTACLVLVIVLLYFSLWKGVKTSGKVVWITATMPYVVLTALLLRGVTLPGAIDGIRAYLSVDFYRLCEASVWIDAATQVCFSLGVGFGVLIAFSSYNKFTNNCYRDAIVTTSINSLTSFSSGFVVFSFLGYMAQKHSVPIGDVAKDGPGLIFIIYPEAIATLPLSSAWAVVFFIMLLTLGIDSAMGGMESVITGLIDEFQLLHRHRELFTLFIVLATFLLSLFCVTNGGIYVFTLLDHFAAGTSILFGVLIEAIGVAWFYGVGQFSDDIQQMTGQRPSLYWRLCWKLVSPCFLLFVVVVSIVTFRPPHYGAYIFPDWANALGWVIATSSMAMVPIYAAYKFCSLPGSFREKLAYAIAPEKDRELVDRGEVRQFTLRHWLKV
T4 sequence (P31645 whole entry): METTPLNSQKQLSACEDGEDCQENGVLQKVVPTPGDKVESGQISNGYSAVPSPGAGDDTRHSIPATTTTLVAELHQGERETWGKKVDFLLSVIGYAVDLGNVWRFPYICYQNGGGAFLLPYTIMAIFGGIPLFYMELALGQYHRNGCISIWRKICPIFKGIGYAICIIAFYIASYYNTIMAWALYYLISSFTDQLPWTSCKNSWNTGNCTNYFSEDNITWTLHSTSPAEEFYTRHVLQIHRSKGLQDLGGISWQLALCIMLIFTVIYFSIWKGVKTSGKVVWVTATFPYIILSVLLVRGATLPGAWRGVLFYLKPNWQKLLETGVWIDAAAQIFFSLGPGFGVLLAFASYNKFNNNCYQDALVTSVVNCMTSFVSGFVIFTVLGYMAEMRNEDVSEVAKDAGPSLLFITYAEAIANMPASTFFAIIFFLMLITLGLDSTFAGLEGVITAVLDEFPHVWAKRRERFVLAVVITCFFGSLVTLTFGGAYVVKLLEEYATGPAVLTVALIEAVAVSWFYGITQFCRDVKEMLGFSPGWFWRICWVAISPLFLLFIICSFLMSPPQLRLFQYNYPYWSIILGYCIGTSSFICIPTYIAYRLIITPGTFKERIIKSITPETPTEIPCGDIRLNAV
T1 sequence (P31424 whole entry): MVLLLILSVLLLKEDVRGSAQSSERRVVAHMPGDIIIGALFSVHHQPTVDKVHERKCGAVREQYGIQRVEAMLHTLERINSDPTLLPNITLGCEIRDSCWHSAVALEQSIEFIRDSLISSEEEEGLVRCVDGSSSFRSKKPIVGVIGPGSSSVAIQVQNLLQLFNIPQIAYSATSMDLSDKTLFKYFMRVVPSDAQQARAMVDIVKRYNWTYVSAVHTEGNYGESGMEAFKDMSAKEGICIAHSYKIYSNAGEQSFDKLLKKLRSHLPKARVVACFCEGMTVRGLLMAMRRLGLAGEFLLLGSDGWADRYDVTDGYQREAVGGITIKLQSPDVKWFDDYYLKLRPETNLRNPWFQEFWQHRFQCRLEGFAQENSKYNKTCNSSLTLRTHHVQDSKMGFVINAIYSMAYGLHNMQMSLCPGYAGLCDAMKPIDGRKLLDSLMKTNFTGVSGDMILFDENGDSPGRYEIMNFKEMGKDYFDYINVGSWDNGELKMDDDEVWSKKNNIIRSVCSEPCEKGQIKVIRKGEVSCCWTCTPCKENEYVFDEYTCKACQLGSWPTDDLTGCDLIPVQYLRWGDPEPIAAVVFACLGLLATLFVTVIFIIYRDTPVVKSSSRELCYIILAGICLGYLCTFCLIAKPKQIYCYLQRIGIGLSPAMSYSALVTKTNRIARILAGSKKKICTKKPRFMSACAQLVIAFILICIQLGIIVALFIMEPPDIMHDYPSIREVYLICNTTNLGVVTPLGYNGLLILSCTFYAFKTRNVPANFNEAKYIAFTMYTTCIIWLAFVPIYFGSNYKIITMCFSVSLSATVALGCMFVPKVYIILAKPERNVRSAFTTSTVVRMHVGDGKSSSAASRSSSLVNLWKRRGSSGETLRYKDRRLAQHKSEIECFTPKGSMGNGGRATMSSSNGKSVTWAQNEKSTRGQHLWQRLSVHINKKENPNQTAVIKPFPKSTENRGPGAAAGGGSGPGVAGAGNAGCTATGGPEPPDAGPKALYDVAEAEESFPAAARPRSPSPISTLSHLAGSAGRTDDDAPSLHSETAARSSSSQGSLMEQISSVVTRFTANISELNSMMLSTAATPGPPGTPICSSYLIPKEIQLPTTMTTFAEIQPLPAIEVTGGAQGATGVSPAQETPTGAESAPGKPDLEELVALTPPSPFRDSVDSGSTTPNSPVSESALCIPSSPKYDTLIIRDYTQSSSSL

Turning to `Cc1cccc(NC(=O)c2ccc(-c3cccc4ccccc34)c(C#N)c2)n1`, the Ki (in general, the dissociation constant of the complex between target and ligand, obtained from inhibition or displacement) in assay [1] was found to be 72 nM. Also, the concentration for half-maximal inhibition (IC50) – broadly, the point on the concentration scale where inhibition reaches its midpoint – in assay [2] was 640 nM. In addition, the inhibition – broadly, how much of the control response was suppressed – in [3] is more than 70%; in [4], less than 70%; in assay [5] it was less than 70%.

In the case of `Cc1cccc(NC(=O)c2cc(F)cc(-c3cccnc3)c2)n1`, the Ki in assay [1] was determined as 702 nM. Further, the inhibition is more than 70% in assay [3], less than 70% in [4] and less than 70% in assay [5].

Regarding `Cc1cccc(NC(=O)c2ccc(-c3cccnc3)nc2)n1`, the inhibition constant Ki in [1] turned out to be 2480 nM. Further, in assay [2], the IC50 was more than 3000 nM. The values for the inhibition in [3], in [4] and in assay [5] were more than 70%, less than 70% and less than 70%, respectively.

Turning to `Cc1cccc(NC(=O)c2ccc(-c3cccnc3)c(Cl)c2)n1`, the Ki in assay [1] was 2780 nM. Further, the IC50 in assay [2] is more than 1000 nM. Besides, the figures for the inhibition in assay [3], in [4] and in assay [5] were more than 70%, less than 70% and less than 70%, respectively.

`Cc1cccc(NC(=O)c2ccc(-c3cccnc3)c(C#N)c2)n1`: in assay [1], the Ki turned out to be 2040 nM. Further, the IC50 in assay [2] was more than 1000 nM. Further, the inhibition was more than 70% in assay [3], less than 70% in assay [4] and less than 70% in assay [5].

Take `Cc1cccc(NC(=O)c2cccc(C#N)c2)n1`: in [1], the Ki is 330 nM. Also, in [2], the IC50 came to 490 nM. Moreover, the inhibition in assay [3] was more than 70%; in [4], less than 70%; in [5], less than 70%.

In the case of `Cc1cccc(NC(=O)c2ccc(Br)cc2)n1`, the Ki in assay [6] was more than 10000 nM. Further, the results for the inhibition in [3], in assay [4] and in assay [5] were more than 70%, less than 70% and less than 70%, respectively.

Regarding `COc1ccccc1-c1cc(F)cc(C(=O)Nc2cccc(C)n2)c1`, the inhibitory constant (Ki) in assay [1] is more than 10000 nM. The inhibition in assay [3] was more than 70%; in [4], less than 70%; in [5], less than 70%.

As for `Cc1cccc(NC(=O)c2cc(-c3cc(F)cc(F)c3)ccn2)n1`, in [2], the half-inhibitory concentration (IC50) came out at 98.1 nM. The inhibition was more than 70% in assay [3], less than 70% in [4] and less than 70% in [5].

In turn, `Cc1nc(C#Cc2cc(F)cc(C#N)c2)cs1` yielded a Ki in assay [6] of 0.9 nM. Also, in assay [2], the IC50 was 0.813 nM. The figures for the inhibition in assay [3], in assay [4] and in assay [5] were more than 70%, less than 70% and less than 70%, respectively.

With `Cc1cccc(NC(=O)c2cccc(-c3ccccc3)c2)n1`, the Ki in assay [1] is 7300 nM. Further, the values for the inhibition in assay [3], in assay [4] and in [5] were more than 70%, less than 70% and less than 70%, respectively.

For the molecule `Cc1nc(C#Cc2ccc(-c3cccnc3)nc2)cs1`, the inhibition is more than 70% in assay [3], less than 70% in [4] and less than 70% in [5].

On to `Cc1cccc(NC(=O)c2ccc(F)c(F)c2)n1`, for which the Ki in [6] was more than 10000 nM. For the same molecule, the inhibition in [3] was more than 70%; in [4], less than 70%; in [5], less than 70%.

With `Cc1cccc(C#Cc2ccc(-c3ccc(F)cc3)c(C#N)c2)n1`, in assay [1], the Ki is 3 nM. Further, the half-maximal inhibitory concentration (IC50) in assay [2] came to 7.19 nM. Besides, the inhibition is more than 70% in assay [3], less than 70% in assay [4] and less than 70% in assay [5].

For the molecule `Cc1cccc(NC(=O)c2cc(F)cc(-c3ccccc3C)c2)n1`, in assay [1], the Ki came out at 610 nM. Also, the figures for the inhibition in assay [3], in [4] and in assay [5] were more than 70%, less than 70% and less than 70%, respectively.

In the case of `Cc1cccc(NC(=O)c2ccc(-c3ccccc3)nc2)n1`, the Ki in assay [1] amounted to 356 nM. Also, the IC50 in assay [2] was more than 3000 nM. Moreover, the inhibition is more than 70% in assay [3], less than 70% in assay [4] and less than 70% in assay [5].

Regarding `Cc1cccc(C#Cc2ccccc2)n1`, the results for the inhibition in [3], in assay [4] and in assay [5] were more than 70%, less than 70% and less than 70%, respectively.

`COc1ccccc1-c1cncc(C(=O)Nc2cccc(C)n2)c1`: the Ki in assay [1] worked out at 4920 nM. The figures for the inhibition in assay [3], in assay [4] and in [5] were more than 70%, less than 70% and less than 70%, respectively.

In assay [6], `Cc1cccc(NC(=O)c2ccc(-c3ccccc3)cc2)n1` displayed a Ki of 7000 nM. The inhibition was not above 70% in assay [3], less than 70% in assay [4] and less than 70% in assay [5].

Regarding `Cc1cccc(NC(=O)c2ccc(-c3cccc(F)c3)c(C#N)c2)n1`, the inhibition in assay [3] was more than 70%; in assay [4], less than 70%; in [5], less than 70%. The Ki in assay [7], in assay [8], in [9], in [10], in assay [11] and in [12] was more than 6000 nM throughout.

`Cc1cccc(NC(=O)c2ccc(-c3cccnc3)c(F)c2)n1`: in [1], the Ki worked out at 7720 nM. Further, the 50% inhibitory concentration (IC50) in [2] was more than 3000 nM. Besides, the inhibition was more than 70% in [3], less than 70% in assay [4] and less than 70% in assay [5].

With `Cc1cccc(NC(=O)c2ccc(-c3ccccc3)c(C#N)c2)n1`, the inhibition constant (Ki) was 9.8 nM in assay [6]; more than 6000 nM in assay [7]; more than 6000 nM in assay [8]; more than 6000 nM in assay [9]; more than 6000 nM in [10]; more than 6000 nM in assay [11]. For the same molecule, in [12], the Ki was more than 6000 nM. Besides, in assay [2], the IC50 turned out to be 13.7 nM.

As for `Cc1nc(C#Cc2cc(F)cc(-c3cccnc3)c2)cs1`, the Ki in assay [6] is 2.7 nM; in [7] it was more than 6000 nM; in assay [8], more than 6000 nM; in [9], more than 6000 nM; in [10], more than 6000 nM; in assay [11] it was more than 6000 nM. The inhibition constant Ki in assay [12] was more than 6000 nM. The IC50 in [2] was 4.83 nM. Further, the inhibition in assay [3] is more than 70%; in assay [4], less than 70%; in [5], less than 70%.

Consider `Cc1cccc(NC(=O)c2ccc(-c3ccc(F)cc3)c(C#N)c2)n1`, for which the Ki in assay [1] came out at 134 nM. Moreover, in assay [2], the IC50 is 4.57 nM. Further, the inhibition in assay [3] is more than 70%; in [4], less than 70%; in assay [5], less than 70%.

Regarding `Cc1nc(C#Cc2cccnc2)cs1`, the inhibition in assay [3], in assay [4] and in [5] was less than 70% in each case.

For `Cc1cccc(NC(=O)c2cncc(-c3cccnc3)c2)n1`, the Ki in assay [1] was more than 10000 nM. Further, the inhibition in [3] is more than 70%; in [4], less than 70%; in [5], less than 70%.

Regarding `Cc1cccc(NC(=O)c2cc(F)cc(F)c2)n1`, the affinity in assay [6] corresponds to a Ki of 7580 nM. The values for the inhibition in assay [3], in assay [4] and in assay [5] were not above 70%, less than 70% and less than 70%, respectively.

The molecule `Cc1cccc(NC(=O)c2ccc(-c3cccc(C#N)c3)cc2)n1` yielded an inhibition constant Ki in assay [6] of more than 10000 nM. Besides, the inhibition was not above 70% in assay [3], less than 70% in assay [4] and less than 70% in assay [5].

As for `Cc1cccc(NC(=O)c2cc(F)cc(C#N)c2)n1`, the Ki in assay [1] worked out at 65.5 nM. Moreover, the IC50 in assay [2] was determined as 21.7 nM. Also, the inhibition was more than 70% in assay [3], less than 70% in assay [4] and less than 70% in [5].

Consider `Cc1cccc(C#Cc2cccc(C#N)c2)n1`, for which, in assay [1], the Ki came out at 1.3 nM. For the same molecule, in assay [2], the half-maximal inhibitory concentration (IC50) stood at 0.415 nM. Further, the inhibition in assay [3] is more than 70%; in assay [4], less than 70%; in assay [5], less than 70%.

Turning to `Cc1cccc(NC(=O)c2ccc(C#N)cc2)n1`, the Ki in assay [6] is more than 10000 nM. Also, the inhibition was more than 70% in assay [3], less than 70% in assay [4] and less than 70% in assay [5].

Turning to `Cc1nc(C#Cc2ccc(-c3cccnc3)c(F)c2)cs1`, the inhibition in [3] is more than 70%; in assay [4], less than 70%; in assay [5], less than 70%. Moreover, the Ki in assay [7], in [8], in [9], in assay [10], in assay [11] and in [12] was more than 6000 nM in each case.

Consider `Cc1cccc(NC(=O)c2ccc(Oc3ccccc3)cc2)n1`, for which the affinity in assay [6], expressed as Ki, was 7290 nM. Further, the inhibition is more than 70% in assay [3], less than 70% in [4] and less than 70% in assay [5].

Turning to `Cc1nc(C#Cc2ccc(-c3ccccc3)nc2)cs1`, the inhibition in [3] is more than 70%; in [4], less than 70%; in assay [5], less than 70%.

`Cc1nc(C#Cc2cccc(-c3ccccc3)c2)cs1`: the inhibition in assay [3] was more than 70%; in [4] it was less than 70%; in assay [5], less than 70%.

`Cc1cccc(NC(=O)c2ccc(-c3cccc(Cl)c3)cc2)n1`: the Ki in [6] was 3330 nM. The inhibition in assay [3] was not above 70%; in [4], less than 70%; in assay [5], less than 70%.

In the case of `Cc1cccc(NC(=O)c2cccc(Cl)c2)n1`, the Ki in assay [1] amounted to 1730 nM. In assay [2], the 50% inhibitory concentration (IC50) turned out to be 1870 nM. The inhibition in assay [3] was more than 70%; in assay [4] it was less than 70%; in assay [5] it was less than 70%.
